Test results published in ChEMBL document CHEMBL5241080, “Quinoline anticancer agents active on DNA and DNA-interacting proteins: From classical to emerging therapeutic targets” (Eur J Med Chem, 2021).

Tests used:
[1] = test system: MDA-MB-231; assay: Cytotoxicity against human MDA-MB-231 cells at 1 uM by MTT assay; format: functional
[2] = test system: HCT-116; assay: Cytotoxicity against human HCT-116 cells assessed as inhibition of cell growth incubated for 72 hrs by MTT assay; format: functional, cell-based; settings: HCT-116, 72 h
[3] = test system: A549; assay: Cytotoxicity against human A549 cells incubated for 72 hrs by MTT assay; format: functional, cell-based; settings: A549, 72 h
[4] = biological target: Hepatocyte growth factor receptor (Homo sapiens, UniProt P08581); assay: Inhibition of c-MET (unknown origin)
[5] = test system: A549; assay: Antiproliferative activity against human A549 cells; format: functional, cell-based
[6] = test system: HCT-116; assay: Antiproliferative activity against human HCT-116 cells; format: functional, cell-based
[7] = test system: HPAC; assay: Antiproliferative activity against human HPAC cells; format: functional, cell-based
[8] = biological target: Histone-lysine N-methyltransferase SMYD3 (Homo sapiens, UniProt Q9H7B4); assay: Inhibition of SMYD3 (unknown origin)
[9] = test system: HepG2; assay: Antiproliferative activity against human HepG2 cells; format: functional, cell-based
[10] = test system: CFPAC-1; assay: Antiproliferative activity against human CFPAC-1 cells; format: functional, cell-based
[11] = test system: M14; assay: Antiproliferative activity against human M14 cells assessed as reduction cell viability incubated for 48 hrs by MTT assay; format: functional, cell-based; settings: M14, 48 h
[12] = test system: NCI-H1299; assay: Antiproliferative activity against human NCI-H1299 cells assessed as reduction cell viability incubated for 48 hrs by MTT assay; format: functional, cell-based; settings: NCI-H1299, 48 h
[13] = biological target: T1, DNA (cytosine-5)-methyltransferase 3A (Homo sapiens, UniProt Q9Y6K1); assay: Inhibition of DNMT3A (unknown origin)
[14] = test system: KG-1; assay: Antiproliferative activity against human KG-1 cells; format: functional, cell-based
[15] = test system: MCF7; assay: Antiproliferative activity against human MCF7 cells assessed as reduction cell viability incubated for 48 hrs by MTT assay; format: functional, cell-based; settings: MCF7, 48 h
[16] = biological target: DNA (cytosine-5)-methyltransferase 1 (Homo sapiens, UniProt P26358); assay: Inhibition of his-tagged human DNMT1 by scintillation counter analysis
[17] = biological target: T1, DNA (cytosine-5)-methyltransferase 3A; assay: Inhibition of C-terminal biotin-labelled human DNMT3A by multilabel plate reader analysis
[18] = test system: HL-60; assay: Antiproliferative activity against human HL-60 cells assessed as reduction cell viability incubated for 48 hrs by MTT assay; format: functional, cell-based; settings: HL-60, 48 h
[19] = test system: HeLa; assay: Antiproliferative activity against human HeLa cells assessed as reduction cell viability incubated for 48 hrs by MTT assay; format: functional, cell-based
[20] = test system: HCT-116; assay: Antiproliferative activity against human HCT-116 cells assessed as reduction cell viability incubated for 48 hrs by MTT assay; format: functional, cell-based; settings: HCT-116, 48 h
[21] = test system: HT-1080; assay: Antiproliferative activity against human HT-1080 cells assessed as reduction cell viability incubated for 48 hrs by MTT assay; format: functional, cell-based; settings: HT-1080, 48 h
[22] = biological target: T2, DNA topoisomerase 1 (Homo sapiens, UniProt P11387); assay: Inhibition of topoisomerase 1 (unknown origin)
T2 sequence (P11387 whole entry): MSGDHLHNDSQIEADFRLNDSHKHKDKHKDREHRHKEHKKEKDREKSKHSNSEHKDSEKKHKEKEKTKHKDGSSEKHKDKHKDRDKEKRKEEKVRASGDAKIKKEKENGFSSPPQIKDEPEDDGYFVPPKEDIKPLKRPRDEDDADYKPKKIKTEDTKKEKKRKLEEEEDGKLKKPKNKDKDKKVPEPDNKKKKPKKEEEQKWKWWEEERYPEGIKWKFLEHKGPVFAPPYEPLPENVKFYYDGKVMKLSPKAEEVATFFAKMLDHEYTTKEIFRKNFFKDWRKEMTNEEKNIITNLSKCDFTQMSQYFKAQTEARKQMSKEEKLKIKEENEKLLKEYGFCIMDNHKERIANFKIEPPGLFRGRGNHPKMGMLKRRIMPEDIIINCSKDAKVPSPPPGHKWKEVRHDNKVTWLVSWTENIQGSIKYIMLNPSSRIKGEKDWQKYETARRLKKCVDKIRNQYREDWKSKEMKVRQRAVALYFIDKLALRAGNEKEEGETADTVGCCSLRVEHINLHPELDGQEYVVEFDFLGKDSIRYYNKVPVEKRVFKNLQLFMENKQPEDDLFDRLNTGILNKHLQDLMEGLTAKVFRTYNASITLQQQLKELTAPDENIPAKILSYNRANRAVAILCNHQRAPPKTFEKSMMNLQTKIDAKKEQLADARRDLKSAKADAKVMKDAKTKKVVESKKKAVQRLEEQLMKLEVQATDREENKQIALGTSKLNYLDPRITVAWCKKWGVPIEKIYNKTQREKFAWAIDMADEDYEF

[23] = Inhibition of topoisomerase 2 (unknown origin); parameters: species or system Homo sapiens
[24] = test system: A549; assay: Antiproliferative activity against human A549 cells assessed as reduction in cell viability incubated for 48 hrs by MTT assay; format: functional, cell-based; settings: A549, 48 h
[25] = test system: HeLa; assay: Antiproliferative activity against human HeLa cells assessed as reduction in cell viability incubated for 48 hrs by MTT assay; format: functional, cell-based
[26] = Oral bioavailability CD-1 mouse at 30 mg/kg; format: ADME, organism-based; settings: in vivo
[27] = Antiproliferative activity against human A375P cells; format: functional, cell-based
[28] = test system: SK-MEL-28; assay: Antiproliferative activity against human SK-MEL-28 cells; format: functional, cell-based
[29] = test system: SK-MEL-5; assay: Antiproliferative activity against human SK-MEL-5 cells; format: functional, cell-based
[30] = biological target: Protein deacetylase HDAC6 (Homo sapiens, UniProt Q9UBN7); assay: Inhibition of HDAC6 (unknown origin)
[31] = test system: PC-3; assay: Antiproliferative activity against human PC-3 cells; format: functional, cell-based
[32] = test system: HeLa; assay: Antiproliferative activity against human HeLa cells incubated for 24 hrs by WST-1 assay; format: functional, cell-based
[33] = biological target: Histone deacetylase; assay: Inhibition of HDAC (unknown origin); format: protein assay, Homo sapiens
[34] = test system: MCF7; assay: Antiproliferative activity against human MCF7 cells assessed as inhibition of cell growth incubated for 72 hrs by MTT assay; format: functional, cell-based; settings: MCF7, 72 h
[35] = test system: CAKI-1; assay: Antiproliferative activity against human CAKI-1 cells assessed as inhibition of cell growth incubated for 72 hrs by MTT assay; format: functional, cell-based; settings: CAKI-1, 72 h
[36] = test system: MIA PaCa-2; assay: Antiproliferative activity against human MIA PaCa-2 cells; format: functional, cell-based
[37] = test system: BT-483; assay: Antiproliferative activity against human BT-483 cells; format: functional, cell-based

T1 sequence (Q9Y6K1 whole entry, looked up): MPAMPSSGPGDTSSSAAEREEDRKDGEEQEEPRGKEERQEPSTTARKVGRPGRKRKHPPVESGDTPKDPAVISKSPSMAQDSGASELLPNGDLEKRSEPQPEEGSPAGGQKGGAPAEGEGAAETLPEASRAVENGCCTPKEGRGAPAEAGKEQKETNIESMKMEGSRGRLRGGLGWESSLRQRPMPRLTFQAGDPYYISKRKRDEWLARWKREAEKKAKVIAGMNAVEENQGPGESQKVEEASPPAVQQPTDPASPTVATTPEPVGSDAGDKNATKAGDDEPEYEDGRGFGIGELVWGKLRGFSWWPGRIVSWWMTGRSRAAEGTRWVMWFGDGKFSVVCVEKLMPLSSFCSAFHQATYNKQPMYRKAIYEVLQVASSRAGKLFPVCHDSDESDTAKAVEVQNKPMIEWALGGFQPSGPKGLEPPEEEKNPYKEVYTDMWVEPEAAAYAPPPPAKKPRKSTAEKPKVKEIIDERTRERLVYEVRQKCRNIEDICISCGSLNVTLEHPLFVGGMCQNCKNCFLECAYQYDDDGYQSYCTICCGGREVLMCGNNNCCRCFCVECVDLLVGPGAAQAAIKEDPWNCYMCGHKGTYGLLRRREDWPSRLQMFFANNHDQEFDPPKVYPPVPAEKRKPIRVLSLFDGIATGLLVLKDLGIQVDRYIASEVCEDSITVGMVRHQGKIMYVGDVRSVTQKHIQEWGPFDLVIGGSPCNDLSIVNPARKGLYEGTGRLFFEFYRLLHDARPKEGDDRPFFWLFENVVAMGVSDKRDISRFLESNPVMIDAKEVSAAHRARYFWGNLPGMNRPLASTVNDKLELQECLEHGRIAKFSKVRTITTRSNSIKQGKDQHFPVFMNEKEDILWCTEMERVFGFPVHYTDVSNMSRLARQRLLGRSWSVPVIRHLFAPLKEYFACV
Chain of Histone-lysine N-methyltransferase SMYD3 (Q9H7B4 whole entry): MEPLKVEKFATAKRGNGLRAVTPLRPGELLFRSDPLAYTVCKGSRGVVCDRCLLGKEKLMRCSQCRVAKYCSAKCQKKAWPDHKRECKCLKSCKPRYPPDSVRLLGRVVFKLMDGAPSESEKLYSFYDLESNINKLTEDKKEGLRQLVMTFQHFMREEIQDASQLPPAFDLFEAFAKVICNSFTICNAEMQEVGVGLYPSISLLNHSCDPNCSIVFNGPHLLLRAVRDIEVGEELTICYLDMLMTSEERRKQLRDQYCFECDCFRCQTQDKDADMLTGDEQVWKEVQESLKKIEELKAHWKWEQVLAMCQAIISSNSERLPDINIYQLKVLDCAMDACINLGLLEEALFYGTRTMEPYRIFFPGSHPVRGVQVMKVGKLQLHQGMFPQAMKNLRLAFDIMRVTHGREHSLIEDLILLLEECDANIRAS
Chain of Hepatocyte growth factor receptor (P08581 whole entry): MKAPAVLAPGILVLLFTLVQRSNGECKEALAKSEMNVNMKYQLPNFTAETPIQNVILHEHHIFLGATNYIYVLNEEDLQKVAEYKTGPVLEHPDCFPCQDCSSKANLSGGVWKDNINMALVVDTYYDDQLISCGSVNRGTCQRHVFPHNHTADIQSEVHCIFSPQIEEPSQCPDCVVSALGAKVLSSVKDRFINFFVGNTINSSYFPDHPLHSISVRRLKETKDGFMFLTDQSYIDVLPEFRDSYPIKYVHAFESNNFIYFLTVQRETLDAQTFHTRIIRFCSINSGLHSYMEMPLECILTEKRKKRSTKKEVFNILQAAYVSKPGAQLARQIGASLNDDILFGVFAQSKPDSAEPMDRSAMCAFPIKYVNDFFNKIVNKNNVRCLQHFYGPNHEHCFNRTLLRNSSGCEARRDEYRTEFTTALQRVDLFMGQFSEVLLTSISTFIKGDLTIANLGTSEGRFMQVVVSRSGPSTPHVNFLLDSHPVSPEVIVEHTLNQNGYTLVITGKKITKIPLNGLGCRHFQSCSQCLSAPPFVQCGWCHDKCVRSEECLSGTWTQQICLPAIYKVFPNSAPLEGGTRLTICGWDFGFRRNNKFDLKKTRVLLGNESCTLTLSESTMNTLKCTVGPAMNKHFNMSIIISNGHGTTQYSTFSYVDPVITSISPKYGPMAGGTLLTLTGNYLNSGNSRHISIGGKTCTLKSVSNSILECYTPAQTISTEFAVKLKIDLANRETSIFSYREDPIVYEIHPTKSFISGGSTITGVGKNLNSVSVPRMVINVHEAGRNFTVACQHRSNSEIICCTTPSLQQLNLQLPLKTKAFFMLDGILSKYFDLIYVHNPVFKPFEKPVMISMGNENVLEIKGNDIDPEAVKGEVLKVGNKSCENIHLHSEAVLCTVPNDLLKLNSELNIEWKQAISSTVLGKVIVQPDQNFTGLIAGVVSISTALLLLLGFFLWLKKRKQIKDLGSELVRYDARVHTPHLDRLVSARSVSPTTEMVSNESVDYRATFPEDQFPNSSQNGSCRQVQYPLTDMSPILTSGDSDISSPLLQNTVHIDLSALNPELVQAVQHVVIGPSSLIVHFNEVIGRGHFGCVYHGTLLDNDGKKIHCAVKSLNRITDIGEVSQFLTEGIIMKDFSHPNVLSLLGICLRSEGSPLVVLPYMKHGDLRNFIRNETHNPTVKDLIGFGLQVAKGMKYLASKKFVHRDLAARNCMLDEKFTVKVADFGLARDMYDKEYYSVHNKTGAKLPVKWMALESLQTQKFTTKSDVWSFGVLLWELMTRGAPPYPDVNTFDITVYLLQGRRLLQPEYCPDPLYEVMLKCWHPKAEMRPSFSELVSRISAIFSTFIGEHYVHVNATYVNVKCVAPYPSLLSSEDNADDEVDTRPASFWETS
Chain of Protein deacetylase HDAC6 (Q9UBN7 whole entry): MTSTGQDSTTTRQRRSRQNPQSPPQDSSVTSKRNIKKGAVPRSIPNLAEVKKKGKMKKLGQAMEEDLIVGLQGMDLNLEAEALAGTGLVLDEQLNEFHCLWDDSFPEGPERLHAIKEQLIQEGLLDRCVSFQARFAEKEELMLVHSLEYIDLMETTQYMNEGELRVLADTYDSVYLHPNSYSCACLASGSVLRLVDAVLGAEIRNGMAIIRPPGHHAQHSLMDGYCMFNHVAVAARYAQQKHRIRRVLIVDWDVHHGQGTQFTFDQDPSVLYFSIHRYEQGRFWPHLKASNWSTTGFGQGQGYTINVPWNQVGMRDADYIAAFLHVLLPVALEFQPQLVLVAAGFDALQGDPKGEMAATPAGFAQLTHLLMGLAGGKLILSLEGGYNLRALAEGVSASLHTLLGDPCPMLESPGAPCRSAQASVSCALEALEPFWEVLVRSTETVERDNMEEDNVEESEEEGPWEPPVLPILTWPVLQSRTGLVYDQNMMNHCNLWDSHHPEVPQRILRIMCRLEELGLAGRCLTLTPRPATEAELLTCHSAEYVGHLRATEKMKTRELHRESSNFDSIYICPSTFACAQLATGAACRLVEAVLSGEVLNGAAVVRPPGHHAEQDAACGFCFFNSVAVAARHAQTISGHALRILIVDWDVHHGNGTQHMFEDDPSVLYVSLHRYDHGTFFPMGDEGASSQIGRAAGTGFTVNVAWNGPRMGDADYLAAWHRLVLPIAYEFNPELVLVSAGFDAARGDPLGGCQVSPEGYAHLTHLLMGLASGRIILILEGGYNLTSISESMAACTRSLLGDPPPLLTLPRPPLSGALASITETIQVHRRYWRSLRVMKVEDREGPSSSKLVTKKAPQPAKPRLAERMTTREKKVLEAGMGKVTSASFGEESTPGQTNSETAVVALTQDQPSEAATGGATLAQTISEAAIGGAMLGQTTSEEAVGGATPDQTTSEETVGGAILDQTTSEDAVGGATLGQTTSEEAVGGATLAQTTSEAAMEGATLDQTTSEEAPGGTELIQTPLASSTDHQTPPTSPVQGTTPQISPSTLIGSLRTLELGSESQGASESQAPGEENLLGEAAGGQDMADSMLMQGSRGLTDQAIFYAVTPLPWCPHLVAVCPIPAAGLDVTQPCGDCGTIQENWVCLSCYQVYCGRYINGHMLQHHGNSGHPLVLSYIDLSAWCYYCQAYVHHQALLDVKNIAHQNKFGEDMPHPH

O[C@@H]1[C@@H](O)[C@H](Oc2ccc(O[C@@H]3O[C@H](COc4cccc5cccnc45)[C@@H](O)[C@H](O)[C@H]3O)cc2)O[C@H](COc2cccc3cccnc23)[C@H]1O
Activity [1]: 34.9%

COc1cc2c(Oc3ccc(NC(=O)C4CCN(c5ccc(F)cc5)C4=O)cc3)ccnc2cc1OCCCCCCC(=O)NO (stereo not given)
IC50 [2]: 0.00054 µM
IC50 [3]: 1.08 µM
IC50 [4]: 0.0125 µM

CCCOC(=O)N1CCN(C(=O)c2ccc3c(Cl)c4c(nc3c2)CCC(CCN)C4)CC1 (stereo not given)
IC50 [5]: 11 µM
IC50 [6]: 11 µM
IC50 [7]: 11 µM
IC50 [8]: 0.04 µM
IC50 [9]: 11 µM
IC50 [10]: 11 µM

O=C(Nc1ccc(Nc2ccnc3ccccc23)cc1)c1ccc(Nc2ccncc2)cc1
IC50 [11]: 0.5 µM
IC50 [12]: 14.7 µM
IC50 [13]: 0.9 µM
IC50 [14]: 0.96 µM
IC50 [15]: 4.1 µM
IC50 [16]: 23 µM
IC50 [17]: 6 µM
IC50 [18]: 0.2 µM
IC50 [19]: 0.14 µM
IC50 [20]: 1 µM
IC50 [21]: 0.5 µM

CN(C)CCCO/N=C1\c2cc(OCCCN(C)C)ccc2-c2cnc3ccccc3c21
IC50 [22]: 2.63 µM
IC50 [23]: 4.95 µM
IC50 [24]: 1.11 µM
IC50 [25]: 0.39 µM
bioavailability [26]: 39.8%

CC[C@@]1(O)C(=O)OCc2c1cc1n(c2=O)Cc2c-1nc1cc(F)c(OC)cc1c2C
IC50 [27]: 0.0019 µM
IC50 [28]: 0.0014 µM
IC50 [29]: 0.0026 µM

O=C(NO)c1ccc(CNc2cccc3cccnc23)cc1
IC50 [5]: 5.33 µM
IC50 [30]: 0.00273 µM
IC50 [31]: 3.28 µM

CCN(CC)CCOC(=O)c1ccc2c(c1)C1C(C(=O)c3ccccc3N1CCN(CC)CC)N2CCN(CC)CC (stereo not given)
IC50 [6]: < 10 µM

CCN(CC)CCOC(=O)c1ccc2c(c1)c1nc3ccccc3c(OCCN(CC)CC)c1n2CCN(CC)CC
IC90 [6]: < 10 µM

C/C(=C\c1ccc(C(=O)NO)cc1)CNc1cnc2c(Br)cccc2c1
IC50 [32]: 1.8 µM
IC50 [33]: 0.028 µM

CC1CN(c2nc3ccccc3c3c2-c2ccc(Cl)cc2C3=O)CCN1 (stereo not given)
IC50 [34]: 2.4 µM
IC50 [35]: 1.66 µM

CCN(CC)CCCNc1ccc2c(c1)[nH]c1c2c[n+](C)c2ccc(NCCCN(CC)CC)cc12
IC50 [36]: 0.22 µM

COc1ccc2c(c1)/C(=N\OCCCN(C)C)c1c-2c(N2CCNCC2)nc2ccccc12
IC50 [37]: 1.1 µM
